These are literature values, as cited in article PMC8982769 (Open Forum Infectious Diseases, 2022).

The test system of one data set is VRE. To be noted: within 48 to 72 hours.
For data set [1], the system named is enterococci carrying vanA, vanB, and vanC genes. As to conditions: in vitro.
For data set [2] the following is noted: within 6 to 12 hours after IV administration.
For data set [3] the following is noted: humans.
The conditions of data set [4]: up to 24 grams of parenteral HPβCD daily for 15 days.

Bounds are passed on as bounds.

Take Oritavancin diphosphate: the log kill with VRE was > 3 log. In addition, the MIC90 in data set [1] is ≤ 0.5 µg/mL.
As for 2-hydroxypropyl-β-cyclodextrin [HPβCD], the “dose recovered in the urine” value in data set [2] is 100%. The Elimination half-life in data set [3] was 102 to 114 min. Besides, in data set [4], the side effects entry is “no side effects were observed”.

As usually defined, the MIC90 is an inhibitory concentration at the 90% level, which refers to growth in some studies and to a panel of isolates in others.
